Measured values: paper PMC12314375, “The GTPase κB-Ras is an essential subunit of the RalGAP tumor suppressor complex” (The Journal of Biological Chemistry, 2025)
Residue numbers refer to the chain shown, from its start.

How the values were obtained:
[1] = target: T1, κB-Ras1–RGα2N complex (Homo sapiens, UniProt Q9NYS0); assay: X-ray crystal structure, […] Å; conditions: Mg2+; 100 µM GNP added; nucleotide-binding pocket of κB-Ras1
T1 construct: gene NKIRAS1; GST-κB-Ras1 (2-175; 1-175 in Results) coexpressed in bacteria with 6xHis-SUMO-RGα2N (2-255, N-terminal domain); SUMO protease added, purified essentially as before, SEC
T1 sequence (Q9NYS0 2-175): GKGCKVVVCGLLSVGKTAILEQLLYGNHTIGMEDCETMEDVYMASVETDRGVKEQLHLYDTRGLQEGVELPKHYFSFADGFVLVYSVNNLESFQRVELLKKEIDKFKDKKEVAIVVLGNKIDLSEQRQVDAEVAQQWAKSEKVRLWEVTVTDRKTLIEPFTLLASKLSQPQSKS
T1 sequence (Q2PPJ7 2-255 partner): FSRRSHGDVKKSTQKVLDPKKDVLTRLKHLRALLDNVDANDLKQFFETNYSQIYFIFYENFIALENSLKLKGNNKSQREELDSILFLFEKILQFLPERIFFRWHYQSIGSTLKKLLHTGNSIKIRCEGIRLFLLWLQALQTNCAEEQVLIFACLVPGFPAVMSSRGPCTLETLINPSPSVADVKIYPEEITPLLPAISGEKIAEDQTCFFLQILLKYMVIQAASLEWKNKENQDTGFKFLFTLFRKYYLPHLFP

[2] = target: T2, κB-Ras1 (Homo sapiens, UniProt Q9NYS0, L65Q); assay: intrinsic GTP hydrolysis, HPLC of GTP/GDP; type: biochemical; conditions: 100 µM GTP, 24 h, 5 mM MgCl2, pH 7.5
T2 construct: gene NKIRAS1; residues 2-175, GST fusion from E. coli Rosetta, GST cut on column with PreScission protease, SEC
T2 sequence (Q9NYS0 2-175 L65Q): T1 sequence (Q9NYS0 2-175) with L64Q

[3] = target: T3, κB-Ras1 (Homo sapiens, UniProt Q9NYS0, G64A); assay: intrinsic GTP hydrolysis, HPLC of GTP/GDP; type: biochemical; conditions: 100 µM GTP, 24 h, 5 mM MgCl2, pH 7.5
T3 construct: gene NKIRAS1; residues 2-175, GST fusion from E. coli Rosetta, GST cut on column with PreScission protease, SEC
T3 sequence (Q9NYS0 2-175 G64A): T1 sequence (Q9NYS0 2-175) with G63A

[4] = target: T4, κB-Ras1 (Homo sapiens, UniProt Q9NYS0); assay: intrinsic GTP hydrolysis, HPLC of GTP/GDP; type: biochemical; conditions: 100 µM GTP, 24 h, 5 mM MgCl2, pH 7.5
T4 construct: gene NKIRAS1; residues 2-175, GST fusion from E. coli Rosetta, GST cut on column with PreScission protease, SEC
T4 sequence (Q9NYS0 2-175): T1 sequence (Q9NYS0 2-175)

Nc1nc2c(ncn2[C@@H]2O[C@H](COP(=O)(O)OP(=O)(O)NP(=O)(O)O)[C@@H](O)[C@H]2O)c(=O)[nH]1 [GNP, 5′-guanylyl imidodiphosphate]
X-ray crystal structure, 2.72 Å [1]: nucleotide-binding pocket of κB-Ras1 is occupied by a magnesium ion and the nonhydrolyzable GTP analog

Nc1nc2c(ncn2[C@@H]2O[C@H](COP(=O)(O)OP(=O)(O)OP(=O)(O)O)[C@@H](O)[C@H]2O)c(=O)[nH]1 [GTP]
intrinsic GTP hydrolysis, HPLC of GTP/GDP [2]: GTP hydrolysis was also not altered by this mutation
intrinsic GTP hydrolysis, HPLC of GTP/GDP [3]: This substitution did not reduce intrinsic GTP hydrolysis activity of κB-Ras1 in vitro
intrinsic GTP hydrolysis, HPLC of GTP/GDP [4]: intrinsic GTP hydrolysis by K-Ras, Rheb, κB-Ras1 WT, and variants measured in vitro
